Key:
GzmB [1] = biological target: T1, GzmB (Homo sapiens, UniProt P10144); test: Inhibition of Fibronectin Cleavage by GzmB (Example D8); assay type: biochemical; details: 20 nM granzyme B, Hilyte Fluor 488 labeled Fibronectin, 30° C.; for inhibition at 0.62 µM: 0.62 uM inhibitor, read-out: Percent Inhibition at Inhibitor Concentration 0.62 uM; for inhibition at 5.56 µM: 5.56 uM inhibitor, read-out: Percent Inhibition at Inhibitor Concentration 5.56 uM; for inhibition at 50 µM: 50 uM inhibitor, read-out: Percent Inhibition at Inhibitor Concentration 50 uM
T1 sequence (P10144 21-247): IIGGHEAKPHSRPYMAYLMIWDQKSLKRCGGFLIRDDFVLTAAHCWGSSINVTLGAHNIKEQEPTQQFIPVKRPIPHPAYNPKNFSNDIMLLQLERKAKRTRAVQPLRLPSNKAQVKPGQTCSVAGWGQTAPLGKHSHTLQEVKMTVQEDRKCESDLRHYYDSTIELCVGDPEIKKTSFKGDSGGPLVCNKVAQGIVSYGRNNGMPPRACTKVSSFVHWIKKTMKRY
Experimental: Black, 96 well high-binding assay plates (Griener Bio-one) were treated overnight at 4° C. with 40 uL of 8 ug/mL Hilyte Fluor 488 labeled Fibronectin (Cytoskeleton, Inc). After fibronectin coating, plates were washed 3 times in buffer (20 mM Tris-HCl, pH 7.4, 20 mM NaCl) then once with granzyme B assay buffer (50 mM HEPES, pH 7.5, 0.1% CHAPS). After washing, 50 uL of granzyme B assay buffer was added to each fibronectin-coated well. In a separate non-binding 96 well assay plate 5 uL of 20× inhibitor serial dilution stocks were added to 45 uL of 2.22× GzmB mix to establish inhibition (enzyme/inhibitor mixes were all prepared in granzyme B assay buffer and were incubated first at room temperature for 20 minutes, then at 30° C. for another 10 minutes). After incubation, 50 uL of this 2× enzyme/inhibitor mix was added to the corresponding coated well to initiate fibronectin cleavage (20 nM final granzyme B concentration, 8-point inhibitor dilution series starting at 50 uM). The assay was conducted at 30° C. in the TECAN plate reader (TECAN INFINITE® M1000 Pro), which was programmed to monitor the kinetic fluorescence polarization signal (filter set Ex/Em 470 nm/527 nm) with readings taken every minute, for 1 hour. Proteolytic activity was evaluated as the rate of fluorescence enhancement in the parallel emission over the linear range of the reaction. % Inhibition values were calculated from assay controls and the resulting date is shown in Table 7.

GzmB [2] = biological target: T1, GzmB; test: Inhibition of Cell Detachment by GzmB Assay (Example D7); assay type: cell-based; details: 50 uM inhibitor; 100 nM GzmB; HDFa primary human fibroblasts; 7 hours; MTS absorbance 490 nm; read-out: Percent Inhibition of cell detachment at 50 uM
Experimental: HDFa primary human fibroblasts were plated at 10 k/well in 200 ul, approximately 20 hrs before treatment. The next day, controls and 100 nM GzmB (recombinant, human) plus or minus inhibitor treatments were prepared in serum-free media. GzmB and inhibitor were incubated for 20 minutes at RT before adding to cells. Before addition, media and serum was removed from the cells and the cells were washed with PBS (1×), using pipettes to prevent disturbing the cells. Treatment preparations (100 ul) were added to the wells and incubated for 7 hours in a tissue culture incubator. After 7 hours, media and treatments were removed and the cells were washed with PBS (1×) to removed detached cells, using pipettes only. Phase pictures were taken then the PBS was removed and replaced with 100 uL of serum-free media and 20 uL of MTS and the cells were allowed to incubate for 3 hours in a cell culture incubator. After 3 hours the absorbance was read at 490 nm and a percent inhibition value for the treatments with inhibitors was determined from the control wells.

| Structure (SMILES) | inhibition at 0.62 µM (GzmB [1]) [%] | inhibition at 5.56 µM (GzmB [1]) [%] | inhibition at 50 µM (GzmB [1]) [%] | inhibition at 50 µM (GzmB [2]) [%] |
| --- | --- | --- | --- | --- |
| O=C(O)CCC(=O)NC(c1ccc(C(=O)N2C[C@@H](O)C[C@H]2C(=O)NCc2nn[nH]n2)[nH]1)C1CCCC1 (stereo partly drawn) [Compound C8, 3-{[cyclopentyl({5-[(2S,4S)-4-hydroxy-2-[(2H-1,2,3,4-tetrazol-5-ylmethyl)carbamoyl]pyrrolidine-1-carbonyl]-1H-pyrrol-2-yl})methyl]carbamoyl}propanoic acid] | 63 | 83 | 94 | – |
| CC(C)C(NC(=O)CCC(=O)O)c1ccc(C(=O)N2CCC[C@H]2C(=O)NCc2nn[nH]n2)[nH]1 (mixture of isomers) [Compound C4, 3-{[2-methyl-1-{5-[(2S)-2-[(2H-1,2,3,4-tetrazol-5-ylmethyl)carbamoyl]pyrrolidine-1-carbonyl]-1H-pyrrol-2-yl}propyl]carbamoyl}propanoic acid] | 28 | 56 | 78 | – |
| CC(C)C(NC(=O)CCC(=O)O)c1ccc(C(=O)NCC(=O)NCc2nn[nH]n2)[nH]1 (racemic) [Compound C3, 3-{[2-methyl-1-[5-({[(2H-1,2,3,4-tetrazol-5-ylmethyl)carbamoyl]methyl}carbamoyl)-1H-pyrrol-2-yl]propyl]carbamoyl}propanoic acid] | – | – | – | 91 |

— patent US9458138B1, “Pyrrole compounds as granzyme B inhibitors” (viDA Therapeutics Inc., priority 2014, dated 2016)
